Reference: US20120283327A1, “PHARMACEUTICAL COMPOSITIONS AND THERAPEUTIC APPLICATIONS OF A HYDROCORTISONE DERIVATIVE DESIGNATED AS DEINA” (priority 2009, published 2012)

Tests used:
[1] = system: bioptic animal samples (skin, chondrocyte, mucosal and follicular vitality); assay: Optical microscopy of cultured biopsies: cytokeratin 10 and 11 expression and haematoxylin/eosin histology; type: cell-based
Description: The bioptic animal samples in the investigation comprised biopsies of: • chronic atrophic cutaneous lesions due to venous stasis (base and margins), • damaged joint cartilage (chronic degenerative osteo-articular arthritis), • terminal cicatricial scalp (post-traumatic or surgical lesions), • hyperkeratosis of the oral cavity (vitamin B deficiency).
All the samples were washed three times with physiological saline and antibiotics (100 units/ml of penicillin+100 μg/ml of streptomycin+160 mg/L gentamycin, fluconazole 0.2 mg/ml) for 10 minutes at ambient temperature.
The biopsies were then sectioned into three parts (two controls, 1 and 2, and one sample, 3, to be treated for each patient) and suspended in a final volume of 25 ml of the corresponding culture solutions within 10 cm slides (Lab-Tek chamber slides, Nunc, Kamstrup, Denmark).
Two types of controls were prepared, an untreated negative control (1), that is one treated with physiological saline and antibiotics only (as described above), and a positive control (2) treated with media for ordinary cell culture for skin biopsies.
2. Positive control: Controlled bioptic specimens 2 were placed between 10 cm slides (Lab-Tek chamber slides, Nunc, Kamstrup, Denmark) in D-MEM medium supplemented with:
3. Samples-1 and -2. Bioptic samples 1 and 2 were placed between 10 cm slides (Lab-Tek chamber slides, Nunc, Kamstrup, Denmark) in medium in a solution of Deina® culture medium (double test). […]
Results relating to the expression of cytokeratin 10 and 11 and histological staining of the bioptic preparations with haematoxylin/eosin (used to display skin, chondrocyte, mucosal and follicular vitality) are shown in Table 6 (CONTROLS) and Table 7 (SAMPLES), and have been expressed using a qualitative and semi-quantitative scale. […]
Samples belonging to the type of the Sample treatment group (Deina®). Median semi-quantitative values for incubation days 7 and 60.

[2] = system: bilateral joint changes; type: in vivo
Description: A clinical trial to evaluate tolerance and efficacy for the compound known as infusional Deina® (composition shown in Table 3) was also performed on a compassionate basis.
Twenty cases (dogs of different breed, size, body weight, sex and age).
The quantity of solution inoculated was equal to the quantity of synovial fluid aspirated and analysed.
a. Time Zero • Collection of case history and clinical examination comprising full blood counts, including LACTATES to check metabolic oxidation, • Radiography of the limb in question, • ROM (Range Of Motion), • Exploratory arthroscopy, • Exclusion of any intra-articular curettage, • Arthrocentesis with removal and morphological/cytological and biochemical examination of the synovial fluid, • Histological examination of a sample of joint cartilage, • Intra-articular inoculation of the solutions tested equal to the quantity of synovial fluid withdrawn and always in the same way (bilateral lesions): of Deina®.
A synovial examination and intra-articular injection of the solution was repeated weekly or for four/eight times, depending on the severity of the initial pathological condition.
b. End of the Treatment Cycle • Arthrocentesis with removal and morphological/cytological and biochemical examination of the synovial fluid, • Histological examination of a sample of joint cartilage, • Radiography of the joint in question, • ROM (Range Of Motion), • Blood lactic acid content, • Clinical examination and recording.

[3] = Deina infusional formulation, intra-articular, weekly four/eight times, 20 dogs

CC1(CCC(=O)O)C(=O)CCC2C1C(O)CC1(C)C2CCC1(O)C(=O)CO (stereo not drawn) [Deina®, 3-[3,5-Dihydroxy-3-(2-hydroxy-acetyl)-3a,6-dimethyl-7-oxo-dodecahydro-cyclo-penta[alpha]naphthalen-6-yl]-propionic acid]
cytokeratin 10 and 11 (typical of normal tegument and scalp tissues with vital follicles) ([1]; optical microscopy, Table 7 summary): net predominance
number of cells (staining with eosin and haematoxylin) ([1]; samples treated for two months, versus controls): net increase
histological state of the cultured tissue ([1]; short term (7 days) up to two months of culture): trophic, vital and active
cases in which pain and palpation fell [2, 3]: 100%
cases with clinical improvement [2, 3]: 70%
cases with increased ROM (Range of Motion) [2, 3]: 90%
tolerance ([2]; dog, in vivo): optimum tolerance
